# Patent publication US6593462B2, “Purified β1,2-xylosyltransferase and uses thereof” (priority 1997, dated 2003)
# Assays:
# β1,2-xylosyltransferase [1] = experiment: Xylosyltransferase activity assay: transfer of 3H-xylose from UDP-[3H]xylose to oligosaccharide acceptor; format: biochemical, soybean; conditions: for Effect of cation added to the purified enzyme (in words) / Stimulation of enzyme activity: 1 mM; for Activity (cpm xylose transferred) with Particulate Enzyme / Activity (cpm xylose transferred) with Purified Enzyme: oligosaccharide as acceptor, gel filtration on Biogel P-4; for Km: purified enzyme, FIG. 8; for Stimulation of enzyme activity: enzyme dialyzed in the presence of EDTA
# Procedure: Reaction mixtures for the assay of β1,2-xylosyltransferase contained the following components in a final volume of 25 μl: 100 mM MES buffer, pH 7.0, 10 mM MnCl2, 0.2% Triton X-100, 5 mM ATP, 0.2 mM UDP-[^3H]xylose (15,000 cpm), and 4 nmol of oligosaccharide acceptor (usually GlcNAc2-Man3-GlcNAc2-tyrosinamide; see structure 4 of FIG. 6, or the asialo-agalacto-oligosaccharide from transferrin). The reaction was started by the addition of 5 μl of the enzyme solution, and incubations were usually at 37° C. for 1 hour. The reaction was stopped by the addition of 100 μl of 1% acetic acid, and the reaction mixtures were chromatographed on a column of Biogel P-4 prepared by placing 8 ml of gel into a 10 ml pipette. The columns were equilibrated with 1% acetic acid, and the product was separated from substrates by elution with 1% acetic acid containing 0.2 M NaCl.
# When more purified enzyme preparations were used in the assays, the radiolabeled product could be separated from the radioactive substrate by ion-exchange chromatography on an Amberlite column (or a column of Dowex-1-Cl^−) contained in a Pasteur pipette. […] Thus the wash can be counted as a measure of radioactive xylose transferred to oligosaccharide. In these assays, it is important to be certain that the enzyme preparation is free of degradative enzymes that cleave UDP-xylose to free xylose.
# [2] = test system: β1,2-xylosyltransferase (56 and 59 kDa bands); experiment: Photoaffinity labeling of xylosyltransferase with N3-UDP[32P]-xylose; format: binding, soybean; conditions: for Effect of oligosaccharide on binding of UDP-xylose probe: FIG. 3A lanes 12 and 13; for Effect of unlabeled nucleoside diphosphate sugar on radiolabel in the 56 and 59 kDa bands: 10 and 100 μM (b69 prints 0.1, 1 and 10 μM for UDP-xylose)
# Procedure: In FIG. 3B, effects of various amounts of acceptor oligosaccharides on labeling with UDP-xylose probe are shown.
# In order to determine which band was really the xylosyltransferase, the enzyme fraction from UDP-hexanolamine-Sepharose was incubated with azido-UDP[^32P]-xylose, and after 30 sec., the mixture was exposed to UV light to activate the azido group.
# Thus, lane 1 is without oligosaccharide acceptor while lanes 2-5 are with 4, 10, 30 and 80 μM oligosaccharide 4 and lanes 6-9 with oligoscacharide 10.
# β1,2-xylosyltransferase [3] = experiment: Specificity of nucleoside diphosphate sugar donor for xylosyltransferase; format: biochemical, soybean; conditions: radioactive sugar nucleotide 20,000 cpm, 200 μM, asialo-agalactotransferrin glycopeptide acceptor, 1 hour at 37°; for cpm incorporated into oligosaccharide, Purified Enzyme: about 20 ng protein
# Procedure: The substrate specificity of the xylosyltransferase for the nucleoside diphosphate sugar donor was also examined, using a variety of radiolabeled sugar nucleotides, as presented in Table 4. Each of these substrates was adjusted to have the same specific activity, and they were compared to each other at that activity.
# Enzyme (particulate fraction or purified xylosyltransferase (about 20 ng protein) from UDP-hexanolamine-Sepharose) was incubated with radioactive sugar nucleotide (20,000 cpm; 200 μM) and asialo-agalactotransferrin glycopeptide for 1 hour at 37°. The reaction mixture was then separated on a Biogel P-4 column and radioactivity in oligasaccharide was determined.
# β1,2-xylosyltransferase [4] = experiment: Solubilization of xylosyltransferase from microsomes by detergents; format: biochemical, soybean; conditions: for Xylose Transferred to Acceptor (cpm), High Speed Supernatant / Xylose Transferred to Acceptor (cpm), Particulate Suspension: protein 10 mg/ml
# Procedure: In order to purify this glycosyltransferase, it was necessary to solubilize the enzyme from the microsomes. A variety of detergents were tested at different concentrations for their ability to solubilize the xylosyltransferase and maintain its stability. […] The enzymatic activity in the supernatant liquid was then measured in the usual transferase assay.
# β1,2-xylosyltransferase [5] = experiment: Xylosyltransferase activity assay: transfer of 3H-xylose from UDP-[3H]xylose to oligosaccharide acceptor; format: biochemical, soybean; conditions: donor substrate; 5 nmoles of oligosaccharide 4; FIG. 9
# fucosyltransferase = experiment: Fucose incorporation from GDP-[3H]fucose into oligosaccharide 4 by soybean particulate enzyme; format: biochemical; conditions: oligosaccharide 4 acceptor
# Procedure: Based on the substrate specificity for oligosaccharide acceptor, it would appear that xylose is added after the action of GlcNAc transferase I and mannosidase II but before the addition of galactose residues to the terminal GlcNAc units. Most of these types of N-linked oligosaccharides also contain an […] L-fucose on the innermost GlcNAc unit. In order to determine whether addition of xylose affects fucose transfer to the oligosaccharide, or vice versa, assays were prepared that contained oligosaccharide 4 as acceptor, radiolabeled nucleoside diphosphate sugar (i.e., either UDP-[^3H]xylose or GDP-[^3H]fucose) and either unlabeled UDP-xylose or unlabeled GDP-fucose. Thus, when the incubation contained radioactive UDP-xylose, various amounts of unlabeled GDP-fucose were added to determine whether addition of fucose would stimulate or inhibit xylose transfer. Likewise, when labeled GDP-fucose was used, the incubations contained unlabeled UDP-xylose. These incubations were done with the soybean particulate enzyme, so that both fucosyltransferase and xylosyltransferase were present.
molecule,measurement,setting,value
[Ca+2] [Ca^++],Effect of cation added to the purified enzyme (in words),"β1,2-xylosyltransferase [1]",no stimulation
CC(=O)N[C@H]1[C@H](O[C@H]2[C@H](O)[C@@H](NC(C)=O)C(O)O[C@@H]2CO)O[C@H](CO)[C@@H](O[C@@H]2O[C@H](CO[C@H]3O[C@H](CO[C@H]4O[C@H](CO)[C@@H](O)[C@H](O)[C@@H]4O[C@H]4O[C@H](CO)[C@@H](O)[C@H](O)[C@@H]4O)[C@@H](O)[C@H](O[C@H]4O[C@H](CO)[C@@H](O)[C@H](O)[C@@H]4O[C@H]4O[C@H](CO)[C@@H](O)[C@H](O)[C@@H]4O)[C@@H]3O)[C@@H](O)[C@H](O[C@H]3O[C@H](CO)[C@@H](O)[C@H](O)[C@@H]3O[C@H]3O[C@H](CO)[C@@H](O)[C@H](O)[C@@H]3O[C@H]3O[C@H](CO)[C@@H](O)[C@H](O)[C@@H]3O)[C@@H]2O)[C@@H]1O (stereo partly shown) [Man9(GlcNAc)2],Activity (cpm xylose transferred) with Particulate Enzyme,"β1,2-xylosyltransferase [1]",48 cpm
same,Activity (cpm xylose transferred) with Purified Enzyme,"β1,2-xylosyltransferase [1]",262 cpm
Transferrin: transferrin obtained from Sigma Chemical Co.,Activity (cpm xylose transferred) with Purified Enzyme,"β1,2-xylosyltransferase [1]",106 cpm
GlcNAc2Man3GlcNAc(Fuc)GlcNAc-T [Oligosaccharide 10],Effect of oligosaccharide on binding of UDP-xylose probe,[2],greatly stimulated binding of UDP-xylose
same,Ability to serve as acceptor of xylose (in words),"β1,2-xylosyltransferase [1]",best acceptors
same,Activity (cpm xylose transferred) with Particulate Enzyme,"β1,2-xylosyltransferase [1]",3212 cpm
same,Activity (cpm xylose transferred) with Purified Enzyme,"β1,2-xylosyltransferase [1]",2387 cpm
same,Km,"β1,2-xylosyltransferase [1]",~150 µM
CC(=O)N[C@H]1[C@@H](OP(=O)(O)OP(=O)(O)OC[C@H]2O[C@@H](n3ccc(=O)[nH]c3=O)[C@H](O)[C@@H]2O)O[C@H](CO)[C@@H](O)[C@@H]1O [UDP-GlcNAc],"cpm incorporated into oligosaccharide, Particulate Enzyme","β1,2-xylosyltransferase [3]",246 cpm
same,"cpm incorporated into oligosaccharide, Purified Enzyme","β1,2-xylosyltransferase [3]",128 cpm
CCCCCCCCO[C@@H]1O[C@H](CO)[C@@H](O)[C@H](O)[C@H]1O [Octylglucoside],"Xylose Transferred to Acceptor (cpm), High Speed Supernatant","β1,2-xylosyltransferase [4]; detergent 1%",210 cpm
same,"Xylose Transferred to Acceptor (cpm), Particulate Suspension","β1,2-xylosyltransferase [4]; detergent 1%",2395 cpm
[Cl-].[Cl-].[Mg+2] [MgCl2],Effect of cation added to the purified enzyme (in words),"β1,2-xylosyltransferase [1]",slight stimulation
same,Stimulation of enzyme activity,"β1,2-xylosyltransferase [1]",11%
GlcNAc-Man3-5′-isomer [Oligosaccharide 8],Effectiveness as xylose acceptor as compared to oligosaccharide 4,"β1,2-xylosyltransferase [1]",about 50%
same,Activity (cpm xylose transferred) with Purified Enzyme,"β1,2-xylosyltransferase [1]",69 cpm
CC(=O)N[C@H]1[C@@H](OP(=O)(O)OP(=O)(O)OC[C@H]2O[C@@H](n3ccc(=O)[nH]c3=O)[C@H](O)[C@@H]2O)O[C@H](CO)[C@H](O)[C@@H]1O [UDP-GalNAc],"cpm incorporated into oligosaccharide, Particulate Enzyme","β1,2-xylosyltransferase [3]",72 cpm
same,"cpm incorporated into oligosaccharide, Purified Enzyme","β1,2-xylosyltransferase [3]",63 cpm
C[C@H](CCC(=O)NCCS(=O)(=O)O)[C@H]1CC[C@H]2[C@@H]3[C@H](O)C[C@@H]4C[C@H](O)CC[C@]4(C)[C@H]3C[C@H](O)[C@]12C [Taurocholoate],"Xylose Transferred to Acceptor (cpm), High Speed Supernatant","β1,2-xylosyltransferase [4]; detergent 1%",1574 cpm
same,"Xylose Transferred to Acceptor (cpm), Particulate Suspension","β1,2-xylosyltransferase [4]; detergent 1%",1570 cpm
O=C(O)CN(CCN(CC(=O)O)CC(=O)O)CC(=O)O [EDTA],Effect of EDTA on purified xylosyltransferase,"β1,2-xylosyltransferase [1]; addition of, or dialysis against",not inhibited
CCCCCCCCCCCCCCCC[n+]1ccccc1.[Cl-] [CPC],"Xylose Transferred to Acceptor (cpm), High Speed Supernatant","β1,2-xylosyltransferase [4]; detergent 1%",64 cpm
same,"Xylose Transferred to Acceptor (cpm), Particulate Suspension","β1,2-xylosyltransferase [4]; detergent 1%",1341 cpm
[Co+2] [Co^++],Effect of cation added to the purified enzyme (in words),"β1,2-xylosyltransferase [1]",no stimulation
O=c1ccn([C@@H]2O[C@H](COP(=O)(O)OP(=O)(O)O[C@H]3OC[C@@H](O)[C@H](O)[C@H]3O)[C@@H](O)[C@H]2O)c(=O)[nH]1 [UDP-xylose],Effect of unlabeled nucleoside diphosphate sugar on radiolabel in the 56 and 59 kDa bands,[2],greatly diminished
same,Km,"β1,2-xylosyltransferase [5]",~0.1 µM
same,Effect of unlabeled UDP-xylose on incorporation of fucose into oligosaccharide,fucosyltransferase,did not affect the incorporation of fucose
same,"cpm incorporated into oligosaccharide, Particulate Enzyme","β1,2-xylosyltransferase [3]",1479 cpm
same,"cpm incorporated into oligosaccharide, Purified Enzyme","β1,2-xylosyltransferase [3]",2597 cpm
GlcNAc-Man3-5-isomer [Oligosaccharide 9],Ability to serve as acceptor of xylose (in words),"β1,2-xylosyltransferase [1]",completely inactive as an acceptor
same,Activity (cpm xylose transferred) with Purified Enzyme,"β1,2-xylosyltransferase [1]",1194 cpm
[Fe+2] [Fe^++],Effect of cation added to the purified enzyme (in words),"β1,2-xylosyltransferase [1]",no stimulation
[Hg+2] [Hg^++],Effect of cation added to the purified enzyme (in words),"β1,2-xylosyltransferase [1]",strongly inhibitory
[Pb+2] [Pb^++],Effect of cation added to the purified enzyme (in words),"β1,2-xylosyltransferase [1]",strongly inhibitory
[Cl][Mn][Cl] [MnCl2],Effect of cation added to the purified enzyme (in words),"β1,2-xylosyltransferase [1]",slight stimulation
[Fe+3] [Fe^+++],Effect of cation added to the purified enzyme (in words),"β1,2-xylosyltransferase [1]",strongly inhibitory
O=C(O)[C@H]1O[C@H](OP(=O)(O)OP(=O)(O)OC[C@H]2O[C@@H](n3ccc(=O)[nH]c3=O)[C@H](O)[C@@H]2O)[C@H](O)[C@@H](O)[C@@H]1O [UDP-glucuronic acid],Effect of unlabeled nucleoside diphosphate sugar on radiolabel in the 56 and 59 kDa bands,[2],did not inhibit
[Ca+2].[Cl-].[Cl-] [CaCl2],Stimulation of enzyme activity,"β1,2-xylosyltransferase [1]",15%
C[C@@H]1O[C@H](OP(=O)(O)OP(=O)(O)OC[C@H]2O[C@@H](n3cnc4c(=O)[nH]c(N)nc43)[C@H](O)[C@@H]2O)[C@@H](O)[C@H](O)[C@@H]1O [GDP-fucose],"cpm incorporated into oligosaccharide, Particulate Enzyme","β1,2-xylosyltransferase [3]",1033 cpm
same,"cpm incorporated into oligosaccharide, Purified Enzyme","β1,2-xylosyltransferase [3]",142 cpm
same,Effect of unlabeled GDP-fucose on xylose incorporation,"β1,2-xylosyltransferase [1]; high concentrations, oligosaccharide 4 acceptor, particulate enzyme",some inhibition of xylose incorporation
C[C@H](CCC(=O)NCCC[N+](C)(C)CCCS(=O)(=O)[O-])[C@H]1CC[C@H]2[C@@H]3[C@H](O)C[C@@H]4C[C@H](O)CC[C@]4(C)[C@H]3C[C@H](O)[C@]12C [CHAPS],"Xylose Transferred to Acceptor (cpm), High Speed Supernatant","β1,2-xylosyltransferase [4]; detergent 1%",541 cpm
same,"Xylose Transferred to Acceptor (cpm), Particulate Suspension","β1,2-xylosyltransferase [4]; detergent 1%",2168 cpm
GlcNAc2Man3(GlcNAc)2-T [Oligosaccharide 4],Effect of oligosaccharide on binding of UDP-xylose probe,[2],greatly stimulated binding of UDP-xylose
same,Ability to serve as acceptor of xylose (in words),"β1,2-xylosyltransferase [1]",best acceptors
same,Activity (cpm xylose transferred) with Particulate Enzyme,"β1,2-xylosyltransferase [1]",3578 cpm
same,Activity (cpm xylose transferred) with Purified Enzyme,"β1,2-xylosyltransferase [1]",3648 cpm
same,Km,"β1,2-xylosyltransferase [1]",~75 µM
Nc1nc2c(ncn2[C@@H]2O[C@H](COP(=O)(O)OP(=O)(O)O[C@H]3O[C@H](CO)[C@@H](O)[C@H](O)[C@@H]3O)[C@@H](O)[C@H]2O)c(=O)[nH]1 [GDP-mannose],"cpm incorporated into oligosaccharide, Particulate Enzyme","β1,2-xylosyltransferase [3]",75 cpm
same,"cpm incorporated into oligosaccharide, Purified Enzyme","β1,2-xylosyltransferase [3]",59 cpm
Triton x-100,Enzymatic activity recovered in the supernatant liquid,"β1,2-xylosyltransferase [4]; 1% or 2% detergent in Buffer B",at least 80%
same,"Xylose Transferred to Acceptor (cpm), High Speed Supernatant","β1,2-xylosyltransferase [4]; detergent 0.5%",1189 cpm
same,"Xylose Transferred to Acceptor (cpm), Particulate Suspension","β1,2-xylosyltransferase [4]; detergent 0.5%",2481 cpm
same,"Xylose Transferred to Acceptor (cpm), High Speed Supernatant","β1,2-xylosyltransferase [4]; detergent 1%",2188 cpm
same,"Xylose Transferred to Acceptor (cpm), Particulate Suspension","β1,2-xylosyltransferase [4]; detergent 1%",2689 cpm
same,"Xylose Transferred to Acceptor (cpm), High Speed Supernatant","β1,2-xylosyltransferase [4]; detergent 2%",2297 cpm
same,"Xylose Transferred to Acceptor (cpm), Particulate Suspension","β1,2-xylosyltransferase [4]; detergent 2%",2695 cpm
